# Experimental data taken from ChEMBL document CHEMBL1687918, “Cell-permeable and plasma-stable peptidomimetic inhibitors of the postsynaptic density-95/N-methyl-D-aspartate receptor interaction” (J Med Chem, 2011).
# pKi: −log10 of the molar value. The source made the active and inactive calls. The rule behind the calls is not given here. Peptide text beside a SMILES is read from it.
# How the values were obtained:
# Disks large homolog 4 [1] = molecular target: T1, Disks large homolog 4 (Homo sapiens, UniProt P78352); assay: Inhibition of PSD-95 PDZ3 domain by competitive fluorescence polarization assay; conditions: for pKi: read-out: Ki
# Target sequence in this assay (P78352 whole entry, the tested form may be a part): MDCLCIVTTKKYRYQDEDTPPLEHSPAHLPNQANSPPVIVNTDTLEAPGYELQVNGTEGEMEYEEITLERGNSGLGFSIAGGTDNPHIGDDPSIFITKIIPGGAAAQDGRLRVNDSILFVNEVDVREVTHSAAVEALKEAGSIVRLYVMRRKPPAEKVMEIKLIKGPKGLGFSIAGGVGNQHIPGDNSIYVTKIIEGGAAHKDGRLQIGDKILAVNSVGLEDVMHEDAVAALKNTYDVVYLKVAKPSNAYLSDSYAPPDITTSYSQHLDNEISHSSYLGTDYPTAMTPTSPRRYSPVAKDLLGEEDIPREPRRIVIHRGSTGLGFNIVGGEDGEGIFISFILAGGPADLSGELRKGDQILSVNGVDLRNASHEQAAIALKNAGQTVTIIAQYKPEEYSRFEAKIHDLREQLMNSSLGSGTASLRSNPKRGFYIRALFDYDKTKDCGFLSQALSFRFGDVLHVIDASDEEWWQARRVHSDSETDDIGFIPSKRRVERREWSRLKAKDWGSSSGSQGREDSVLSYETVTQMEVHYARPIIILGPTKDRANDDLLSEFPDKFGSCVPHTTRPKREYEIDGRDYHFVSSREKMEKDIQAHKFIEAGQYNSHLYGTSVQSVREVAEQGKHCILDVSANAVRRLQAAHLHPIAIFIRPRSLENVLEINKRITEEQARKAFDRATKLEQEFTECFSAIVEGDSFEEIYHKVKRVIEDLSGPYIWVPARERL
# Disks large homolog 4 [2] = molecular target: T1, Disks large homolog 4; assay: Inhibition of PSD-95 PDZ2 domain-GluN2B interaction expressed in COS7 cells transfected with pGFP2-PDZ2 and pRluc-N2B at 500 uM by BRET assay; assay type: cell-based; conditions: COS-7
# Target sequence in this assay (P78352 whole entry, looked up, the tested form may be a part): as the sequence (P78352 whole entry, the tested form may be a part) above
# Disks large homolog 4 [3] = molecular target: T1, Disks large homolog 4; assay: Inhibition of PSD-95 PDZ2 domain by competitive fluorescence polarization assay
# Target sequence in this assay (P78352 whole entry, the tested form may be a part): as above
# Disks large homolog 4 [4] = molecular target: T1, Disks large homolog 4; assay: Inhibition of PSD-95 PDZ2 domain-GluN2B interaction expressed in COS7 cells transfected with pGFP2-PDZ2 and pRluc-N2B at 100 uM by BRET assay; assay type: cell-based; conditions: COS-7
# Target sequence in this assay (P78352 whole entry, looked up, the tested form may be a part): as the sequence (P78352 whole entry, the tested form may be a part) above
# [5] = Stability in human plasma assessed as half life by ESI-LC/MS; assay type: ADME, cell-free
# Disks large homolog 4 [6] = molecular target: T1, Disks large homolog 4; assay: Inhibition of PSD-95 PDZ2 domain-GluN2B interaction expressed in COS7 cells transfected with pGFP2-PDZ2 and pRluc-N2B at 50 to 1000 uM by BRET assay; assay type: cell-based; conditions: COS-7
# Target sequence in this assay (P78352 whole entry, looked up, the tested form may be a part): as the sequence (P78352 whole entry, the tested form may be a part) above
Compound,pKi (Disks large homolog 4 [1]),inhibition (Disks large homolog 4 [2]),pKi (Disks large homolog 4 [3]),other results
CC(C)[C@H](NC(=O)[C@H](CC(=O)O)NC(=O)[C@@H](NC(=O)[C@H](CCC(=O)O)NCCc1ccc(Cl)c(Cl)c1)[C@@H](C)O)C(=O)O,3.89,inactive,5.92,
CC(C)[C@H](NC(=O)[C@H](C)NC(=O)[C@@H](NC(=O)[C@H](C)N)[C@@H](C)O)C(=O)O (H-ATAV-OH),< 3.40,inactive,,
H-RRRRRRRRKLSSIESDV-OH,,,,inhibition (Disks large homolog 4 [4]): Active
CC(C)[C@H](NC(=O)[C@H](C)NC(=O)[C@@H](NC(=O)[C@H](CCC(=O)O)NCCCc1ccc2ccccc2c1)[C@@H](C)O)C(=O)O,4.28,,5.30,
CC(C)[C@H](NC(=O)[C@H](C)NC(=O)[C@@H](NC(=O)[C@H](C)NCCc1ccc2ccccc2c1)[C@@H](C)O)C(=O)O,3.55,,4.25,
CC(C)[C@H](NC(=O)[C@H](C)NC(=O)[C@@H](NC(=O)[C@H](CCC(=O)O)NCCCc1ccc(F)c(F)c1F)[C@@H](C)O)C(=O)O,4.36,,5.38,
CC(C)[C@H](NC(=O)[C@H](C)NC(=O)[C@@H](NC(=O)[C@H](CCC(=O)O)NCCC1CCCCC1)[C@@H](C)O)C(=O)O,,Active,6.20,half-life [5]: 0.483 h; inhibition (Disks large homolog 4 [6]): Dose-dependent effect
C[C@H](NC(=O)[C@H](C)NC(=O)[C@H](C)NC(=O)[C@H](CCC(=O)O)NCCCc1ccc(Cl)c(Cl)c1)C(=O)O,,,,inhibition (Disks large homolog 4 [6]): inactive
CC(C)[C@H](NC(=O)[C@H](C)NC(=O)[C@@H](NC(=O)[C@H](CCC(=O)O)NCC1CCCCCC1)[C@@H](C)O)C(=O)O,4.80,,5.85,
CC(C)[C@H](NC(=S)[C@H](C)NC(=O)[C@@H](NC(=O)[C@H](CCC(=O)O)NCCC1CCCCC1)[C@@H](C)O)C(=O)O,4.96,Active,6.20,half-life [5]: > 117 h; inhibition (Disks large homolog 4 [6]): Active
CC(C)[C@H](NC(=O)[C@H](C)NC(=O)[C@@H](NC(=O)[C@@H](N)CCC(=O)O)[C@@H](C)O)C(=O)O,,inactive,,
CC(C)[C@H](NC(=O)[C@H](CC(=O)O)NC(=O)[C@@H](NC(=O)[C@H](C)NCCC1CCCCC1)[C@@H](C)O)C(=O)O,< 3.40,,,
CC(C)[C@H](NC(=O)[C@H](C)NC(=O)[C@@H](NC(=O)[C@H](CCC(=O)O)NCCc1ccc(F)c(F)c1F)[C@@H](C)O)C(=O)O,5.06,,5.74,
CC(C)[C@H](NC(=O)[C@H](CC(=O)O)NC(=O)[C@@H](NC(=O)[C@H](CCC(=O)O)NCCC1CCCCC1)[C@@H](C)O)C(=O)O,,inactive,,Ki (Disks large homolog 4 [1]): Not Active
CC(C)[C@H](NC(=O)[C@H](C)NC(=O)[C@@H](NC(=O)[C@H](CCC(=O)O)NCCc1ccc2ccccc2c1)[C@@H](C)O)C(=O)O,,Active,,half-life [5]: 1.53 h; inhibition (Disks large homolog 4 [6]): Dose-dependent effect
CC(C)[C@H](NC(=S)[C@H](C)NC(=O)[C@@H](NC(=O)[C@H](CCC(=O)O)NCCc1ccc(Cl)c(Cl)c1)[C@@H](C)O)C(=O)O,5.08,Active,6.00,half-life [5]: > 117 h; inhibition (Disks large homolog 4 [6]): Dose-dependent effect
CC(C)[C@H](NC(=O)[C@H](CC(=O)O)NC(=O)[C@@H](NC(=O)[C@@H](N)CCC(=O)O)[C@@H](C)O)C(=O)O (H-ETDV-OH),,inactive,,
CC(C)[C@H](NC(=O)[C@H](C)NC(=O)[C@@H](NC(=O)[C@H](CCC(=O)O)NCCC1CCCCCC1)[C@@H](C)O)C(=O)O,5.03,,5.92,

Compound,pKi (Disks large homolog 4 [1]),inhibition (Disks large homolog 4 [2]),pKi (Disks large homolog 4 [3]),other results
CC(C)[C@H](NC(=O)[C@H](CC(=O)O)NC(=O)[C@@H](NC(=O)[C@H](CCC(N)=O)NCCC1CCCCC1)[C@@H](C)O)C(=O)O,,,,Ki (Disks large homolog 4 [1]): Not Active
CC(C)[C@H](NC(=O)[C@H](C)NC(=O)[C@@H](NC(=O)[C@@H](N)CCC(N)=O)[C@@H](C)O)C(=O)O (H-QTAV-OH),< 3.40,,3.96,
CN[C@@H](CCC(=O)O)C(=O)N[C@H](C(=O)N[C@@H](C)C(=S)N[C@H](C(=O)O)C(C)C)[C@@H](C)O,,,4.97,half-life [5]: > 91.7 h
CC(C)[C@H](NC(=O)[C@H](CC(=O)O)NC(=O)[C@@H](NC(=O)[C@H](C)N)[C@@H](C)O)C(=O)O (H-ATDV-OH),,,,Ki (Disks large homolog 4 [1]): Not Active
CC(C)[C@H](NC(=S)[C@H](C)NC(=O)[C@@H](NC(=O)[C@H](CCC(=O)O)NCCc1ccc2ccccc2c1)[C@@H](C)O)C(=O)O,4.96,Active,5.96,half-life [5]: > 117 h; inhibition (Disks large homolog 4 [6]): Dose-dependent effect
CN[C@@H](CCC(=O)O)C(=O)N[C@H](C(=S)N[C@@H](C)C(=O)N[C@H](C(=O)O)C(C)C)[C@@H](C)O,,,3.66,half-life [5]: 9 h
CN[C@@H](CCC(=O)O)C(=S)N[C@H](C(=O)N[C@@H](C)C(=O)N[C@H](C(=O)O)C(C)C)[C@@H](C)O,,,4.49,half-life [5]: > 91.7 h
CC(C)[C@H](NC(=O)[C@H](CC(=O)O)NC(=O)[C@@H](NC(=O)[C@@H](N)CCC(N)=O)[C@@H](C)O)C(=O)O,,,,Ki (Disks large homolog 4 [1]): Not Active
CC(C)[C@H](NC(=O)[C@H](C)NC(=O)[C@@H](NC(=O)[C@H](CCC(=O)O)NCCC1CC2CCC1C2)[C@@H](C)O)C(=O)O (some centres undefined),4.85,,5.82,
CC(C)[C@H](NC(=O)[C@H](C)NC(=O)[C@@H](NC(=O)[C@H](CCC(=O)O)NCC12CC3CC(CC(C3)C1)C2)[C@@H](C)O)C(=O)O,5.17,,5.68,
CC(C)[C@H](NC(=O)[C@H](C)NC(=O)[C@@H](NC(=O)[C@H](CCC(=O)O)NCCCCc1ccc2ccc3cccc4ccc1c2c34)[C@@H](C)O)C(=O)O,4.12,,4.48,
CC(C)[C@H](NC(=O)[C@H](C)NC(=O)[C@@H](NC(=O)[C@H](CCC(=O)O)NCCc1ccc(Cl)c(Cl)c1)[C@@H](C)O)C(=O)O,,Active,,half-life [5]: 1.38 h; inhibition (Disks large homolog 4 [6]): Dose-dependent effect
CC(C)[C@H](NC(=O)[C@H](C)NC(=O)[C@@H](NC(=O)[C@H](CCC(=O)O)NCCCc1c2ccccc2cc2ccccc12)[C@@H](C)O)C(=O)O,4.02,,5.05,
CC(C)[C@H](NC(=O)[C@H](C)NC(=O)[C@@H](NC(=O)[C@H](C)NCCc1ccc(Cl)c(Cl)c1)[C@@H](C)O)C(=O)O,4.19,,4.89,
CC(C)[C@H](NC(=O)[C@H](C)NC(=O)[C@@H](NC(=O)[C@H](CCC(=O)O)NCC1CC2CCC1C2)[C@@H](C)O)C(=O)O (some centres undefined),4.70,,5.89,
CN[C@@H](CCC(=O)O)C(=O)N[C@H](C(=O)N[C@@H](C)C(=O)N[C@H](C(=O)O)C(C)C)[C@@H](C)O,,,5.02,half-life [5]: 1.88 h
CC(C)[C@H](NC(=O)[C@H](CC(=O)O)NC(=O)[C@@H](NC(=O)[C@H](CCC(=O)O)NCCc1ccc2ccccc2c1)[C@@H](C)O)C(=O)O,3.68,inactive,5.74,
CC(C)[C@H](NC(=O)[C@H](C)NC(=O)[C@@H](NC(=O)[C@H](CCC(=O)O)NCCc1ccc2ccc3cccc4ccc1c2c34)[C@@H](C)O)C(=O)O,4.29,,4.80,
